Values of other authors, collected in article PMC6591635, “Advancing the Therapeutic Potential of Indoleamides for Tuberculosis” (Antimicrobial Agents and Chemotherapy, 2019).
Converted amounts (≈) assume the structure as drawn.

Test system: M. tuberculosis H37Rv
Conditions: M. tuberculosis H37Rv; concentration used as 1× MIC; cited from earlier work

SMILES: Cc1cc(C)c2cc(C(=O)NC3CCCCCCC3)[nH]c2c1 [compound 1]
- MIC (1× MIC): 4 ng/mL (≈ 0.0134 µM)
